Tests used:
Format in all cases: cell-based
F508del-CFTR [1] = target: T1, F508del-CFTR (Homo sapiens, UniProt P13569, DEL508-508); assay: Transepithelial electrical conductance (TEEC) in FRT cells expressing F508del-CFTR; set-up: expressed in transfected cells; host or cells: FRT cells; conditions: compounds tested at 5.0 μM, 24 hrs, table 2
Protocol: Transepithelial Electrical Conductance (TEEC)
FRT cells expressing F508del-CFTR were plated on HTS Transwell-24 well permeable supports (Code 3379, Corning Life Sciences) at a density of 200,000 cells/well. After six days, cells were incubated for 24 hrs with test correctors, vehicle, or VX-809. Compounds were dissolved in both basolateral (800 μL) and apical (300 μL) culture medium. After treatment, the culture medium was removed and replaced on both sides with a saline solution containing (in mM): 130 NaCl, 2.7 KCl, 1.5 KH2PO4, 1 CaCl2), 0.5 MgCl2, 10 glucose, 10 Na-Hepes (pH 7.4). The basolateral and apical side received 800 μL and […], respectively. The 24-well tray with cells was placed on a block heater (SBH 130D, Stuart) to keep the temperature at 37° C. during the entire experiment. After 10 min, the basal transepithelial electrical resistance (TEER) across each layer of FRT cells was measured with a STX100C electrode pair connected to an EVOM2 voltohmeter (World Precision Instruments). To stimulate F508del-CFTR, each well received (apical side) 50 μL of saline solution containing 60 μM forskolin and 150 μM genistein (final concentrations: 20 μM forskolin, 50 μM genistein). Forskolin was also pipetted in the basolateral medium to obtain the 20 μM concentration. After 10 min TEER was measured again in each well. To block F508del-CFTR function, the inhibitor PPQ-102 was used at the final concentration of 30 μM. To achieve the desired concentration, 75 μL of the apical solution in each well was replaced with an equal volume of saline solution containing 20 μM forskolin, 50 μM genistein, and 60 μM PPQ-102. After further 10 min, the transepithelial electrical resistance was measured. All values of TEER were converted to transepithelial electrical conductance (TEEC) using the formula TEEC=1/TEER. The parameter to indicate activity of F508del-CFTR in each well (ATEEC) was calculated from the difference in TEEC measured after maximal stimulation of F508del-CFTR with forskolin and genistein and after block with PPQ-102.
Corrector activities obtained on selected compounds tested at 5.0 μM (expressed as ΔTEEC values) are illustrated in table 2, wherein +: ΔTEEC<2000 μS; ++: 2000 μS<ΔTEEC<3000 μS; […]: ΔTEEC>3000 μS.

F508del-CFTR [2] = target: T1, F508del-CFTR; assay: Short-circuit current recordings on human bronchial epithelial cells (F508del/F508del); set-up: Human bronchial epithelial (HBE) cells obtained from CF patients (F508del/F508del genotype); endogenous in cells; host or cells: primary human bronchial epithelial cells from CF patients, F508del/F508del; conditions: HBE cells from CF patients (F508del/F508del), 24 hrs treatment; table 3
Protocol: Short-Circuit Current Recordings on Human Bronchial Epithelial Cells
Human bronchial epithelial (HBE) cells obtained from CF patients (F508del/F508del genotype) were plated on Snapwell inserts (Code 3801, Corning Life Sciences) at a density of 500,000 cells per insert. Cells were cultured for two weeks in a differentiating medium whose compositions has been previously described (Scudieri et al., J Physiol 590:6141-6155, 2012). For the first week, the medium was kept on both apical and basolateral sides of inserts (submerged condition). For the second week, the apical medium was removed (air-liquid condition, ALC). To test the activity of correctors, cells were treated for 24 hrs with compounds dissolved in the basolateral medium. After treatment, Snapwell inserts carrying differentiated bronchial epithelia were mounted in a vertical chamber resembling an Ussing system with internal fluid circulation. Both apical and basolateral hemichambers were filled with 5 mL of a Krebs bicarbonate solution containing (in mM): 126 NaCl, 0.38 KH2PO4, 2.13 K2HPO4, 1 MgSO4, 1 CaCl2), 24 NaHCO3, and 10 glucose. Both sides were continuously bubbled with a gas mixture containing 5% CO2-95% air and the temperature of the solution was kept at 37° C. The transepithelial voltage was short-circuited with a voltage-clamp (DVC-1000, World Precision Instruments) connected to the apical and basolateral chambers via Ag/AgCl electrodes and agar bridges (1 M KCl in 1% agar). The offset between voltage electrodes and the fluid resistance were canceled before experiments. The short-circuit current was recorded with a PowerLab 4/25 (ADInstruments) analogical to digital converter connected to a Macintosh computer. […] The difference between the current measured with CPT-cAMP plus potentiator and the current remaining after CFTRinh-172 treatment (ΔICFTR) was taken as the parameter reflecting F508del-CFTR expression in the apical membrane.
Activities of selected compounds on HBE cells (expressed as ΔICFTR) are illustrated in table 3 wherein +: ΔICFTR<2.0 μA; ++: 2.0 μA<ΔICFTR<3.0 μA; +++: ΔICFTR>3.0 μA.

mutant CFTR = target: T2, mutant CFTR (Homo sapiens, UniProt P13569, DEL508-508); assay: Fluorescence (HS-YFP) assay for CFTR activity, corrector assay; conditions: CFBE41o- and FRT cells with stable expression of mutant CFTR, 24 h compound treatment
T2 construct: expressed in transfected cells
T2 sequence (P13569 with tags, fused parts or gaps DEL508-508): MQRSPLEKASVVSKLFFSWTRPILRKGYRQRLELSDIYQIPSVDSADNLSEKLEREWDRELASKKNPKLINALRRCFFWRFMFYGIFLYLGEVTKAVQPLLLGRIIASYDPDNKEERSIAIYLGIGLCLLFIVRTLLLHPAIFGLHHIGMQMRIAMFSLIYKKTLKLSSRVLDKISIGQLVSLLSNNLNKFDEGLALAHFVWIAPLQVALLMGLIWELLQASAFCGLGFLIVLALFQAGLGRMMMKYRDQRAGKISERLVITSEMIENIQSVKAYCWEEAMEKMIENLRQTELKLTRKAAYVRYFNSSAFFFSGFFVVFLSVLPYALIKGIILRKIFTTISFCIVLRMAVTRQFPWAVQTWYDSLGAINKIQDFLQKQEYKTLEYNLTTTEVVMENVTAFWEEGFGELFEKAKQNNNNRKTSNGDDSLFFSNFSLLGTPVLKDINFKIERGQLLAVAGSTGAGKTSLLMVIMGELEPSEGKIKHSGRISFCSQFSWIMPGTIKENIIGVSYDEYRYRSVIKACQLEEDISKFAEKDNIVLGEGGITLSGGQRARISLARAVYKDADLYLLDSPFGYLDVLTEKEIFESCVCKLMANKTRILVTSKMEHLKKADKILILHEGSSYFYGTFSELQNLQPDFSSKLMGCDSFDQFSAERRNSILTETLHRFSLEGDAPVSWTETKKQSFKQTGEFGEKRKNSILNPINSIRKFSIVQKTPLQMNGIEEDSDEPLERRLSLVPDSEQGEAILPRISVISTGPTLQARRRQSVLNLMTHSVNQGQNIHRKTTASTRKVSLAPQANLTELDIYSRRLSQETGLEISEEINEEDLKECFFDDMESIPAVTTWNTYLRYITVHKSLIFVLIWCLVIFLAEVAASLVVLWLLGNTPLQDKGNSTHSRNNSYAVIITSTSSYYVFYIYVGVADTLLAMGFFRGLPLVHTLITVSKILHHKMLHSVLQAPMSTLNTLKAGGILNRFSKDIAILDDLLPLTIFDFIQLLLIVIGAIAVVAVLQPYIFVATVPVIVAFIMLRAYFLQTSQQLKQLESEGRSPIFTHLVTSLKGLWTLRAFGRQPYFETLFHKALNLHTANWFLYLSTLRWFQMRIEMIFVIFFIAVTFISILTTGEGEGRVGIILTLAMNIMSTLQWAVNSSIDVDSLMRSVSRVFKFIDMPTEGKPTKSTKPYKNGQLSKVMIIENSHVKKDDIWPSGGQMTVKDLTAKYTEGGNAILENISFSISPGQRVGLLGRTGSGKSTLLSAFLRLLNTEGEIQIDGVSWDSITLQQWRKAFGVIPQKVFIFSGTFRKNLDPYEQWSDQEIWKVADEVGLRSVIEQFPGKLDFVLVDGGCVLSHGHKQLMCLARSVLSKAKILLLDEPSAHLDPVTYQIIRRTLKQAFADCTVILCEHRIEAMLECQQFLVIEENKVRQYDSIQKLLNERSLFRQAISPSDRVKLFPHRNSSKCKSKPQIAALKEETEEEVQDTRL
Procedure, shortened: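 CFBE41o- or FRT cells stably expressing mutant CFTR and HS-YFP were exposed to compounds for 24 h (corrector mode), then stimulated 30 min at 37° C with forskolin (20 μM) plus genistein (50 μM). YFP quenching after 100 mM iodide injection; initial slope from exponential fit of final 10 s; EC50 reported.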

T1 sequence (P13569 with tags, fused parts or gaps DEL508-508): as above

SMILES | Corrector activity (ΔTEEC) (F508del-CFTR [1]) | activity on HBE cells (ΔICFTR) (F508del-CFTR [2]) | EC50 (mutant CFTR) [nM]
Cc1nn(-c2cccc(C(=O)N(C)c3ccc4c(c3)OCO4)c2)c(C)c1C(F)(F)F [compound 099, N-(1,3-Benzodioxol-5-yl)-3-[3,5-dimethyl-4-(trifluoromethyl)pyrazol-1-yl]-N-methyl-benzamide] | ++ (2000 μS<ΔTEEC<3000 μS) | ++ (2.0 μA<ΔICFTR<3.0 μA) | < 1000
CC(C)Cc1cc(C(F)(F)F)nn1-c1cccc(C(=O)N(C)c2ccc3c(c2)OCO3)c1 [compound 100, N-(1,3-Benzodioxol-5-yl)-3-[5-isobutyl-3-(trifluoromethyl)pyrazol-1-yl]-N-methyl-benzamide] | + (ΔTEEC<2000 μS) | + (ΔICFTR<2.0 μA) | < 1000
Cc1nc2ccc(N(C)C(=O)c3cccc(-n4nc(C(F)(F)F)c(Cl)c4C)c3)cc2o1 [compound 108, 3-[4-Chloro-5-methyl-3-(trifluoromethyl)pyrazol-1-yl]-N-methyl-N-(2-methyl-1,3-benzoxazol-6-yl)benzamide] | ++ (2000 μS<ΔTEEC<3000 μS) | + (ΔICFTR<2.0 μA) | < 1000
CN(C(=O)c1cccc(-n2nc(C(F)(F)F)cc2-c2ccccc2)c1)c1ccc2c(c1)OCO2 [compound 125, N-(1,3-Benzodioxol-5-yl)-N-methyl-3-[5-phenyl-3-(trifluoromethyl)pyrazol-1-yl]benzamide] | + (ΔTEEC<2000 μS) | + (ΔICFTR<2.0 μA) | < 1000
CCOC(=O)c1ccc(OCc2c(Cl)c(C)nn2-c2cccc(C(=O)N(C)c3ccc4c(c3)OCO4)c2)cc1 [compound 141, Ethyl 4-[[2-[3-[1,3-benzodioxol-5-yl(methyl)carbamoyl]phenyl]-4-chloro-5-methyl-pyrazol-3-yl]methoxy]benzoate] | ++ (2000 μS<ΔTEEC<3000 μS) | +++ (ΔICFTR>3.0 μA) | < 1000

Reference: US12492193B2, “Pyrazole derivatives for the treatment of cystic fibrosis” (Fondazione Istituto Italiano Di Tecnologia, priority 2017, dated 2025)
